According to patent US20260028354A1, “TETRAHYDRONAPHTHALENE DERIVATIVES AS ESTROGEN RECEPTOR DEGRADERS” (REGENT OF THE UNIVERSITY OF MICHIGAN, priority 2022, published 2026):
pIC50: −log10 of the molar value. Where two headings read alike, the source gives them in different places.

Experiments:
CRBN/DDB1 = CRBN/DDB1 (Homo sapiens (Human), UniProt Q96SW2); assay type: binding; conditions: His tagged CRBN+DDB1, Cy5-labeled Thalidomide probe, one hour; read-out: CRBN HTRF IC50
Procedure: The binding potency was determined using HTRF assay technology (Perkin Elmer). Compounds were serially diluted in DMSO and […] volume was transferred to white 384-well plate.

ER in MCF-7 cells = ER in MCF-7 cells (Homo sapiens (Human), UniProt P03372); test: In-cell Western (ICW) ER degradation assay in MCF-7 cells; assay type: cell-based; conditions: 16 hrs treatment; for Dmax: MCF7, MCF-7, maximal ER degradation, read-out: MCF7 Dmax; for DC50: MCF-7, ER degradation, read-out: MCF7 DC50
ER = ER (Homo sapiens (Human), UniProt P03372); test: In-cell western blot analysis of ER for "B" compounds; assay type: cell-based; conditions: 16 hours, read-out: ICW DC50
Outline: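 ER levels given as a percentage of untreated/DMSO-treated wells (100%). Detection used primary antibodies for 2 h at room temperature followed by 680 and 800 nm fluorescent secondaries at 1:1000 for 1 h, read by LI-COR imaging.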

[1] = Cell growth assay (WST-8) for "B" compounds; assay type: cell-based; conditions: T47D, read-out: Cell growth Inhibition in T47D cell line IC50
Outline: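 Four-day compound exposure of cells plated at 1500/well the day before. Read-out is WST-8 (10%, 2.5 h, 37 °C) absorbance at 450 nm, normalized to vehicle control over three independent repeats.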

Sequence of CRBN/DDB1 (Q96SW2 whole entry, species assumed): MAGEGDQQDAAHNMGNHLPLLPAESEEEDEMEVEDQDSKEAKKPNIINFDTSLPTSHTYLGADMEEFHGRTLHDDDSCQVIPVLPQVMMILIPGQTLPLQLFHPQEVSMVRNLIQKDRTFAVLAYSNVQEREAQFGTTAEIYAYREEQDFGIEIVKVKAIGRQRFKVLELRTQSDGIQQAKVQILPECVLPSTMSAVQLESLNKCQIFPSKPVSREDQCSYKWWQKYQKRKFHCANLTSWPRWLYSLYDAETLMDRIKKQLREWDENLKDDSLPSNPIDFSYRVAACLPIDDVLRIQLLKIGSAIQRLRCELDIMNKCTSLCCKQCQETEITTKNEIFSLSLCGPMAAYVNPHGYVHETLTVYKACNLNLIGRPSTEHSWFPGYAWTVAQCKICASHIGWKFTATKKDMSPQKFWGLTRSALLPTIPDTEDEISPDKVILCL
Sequence of CRBN/DDB1 (Q16531 whole entry partner, species assumed): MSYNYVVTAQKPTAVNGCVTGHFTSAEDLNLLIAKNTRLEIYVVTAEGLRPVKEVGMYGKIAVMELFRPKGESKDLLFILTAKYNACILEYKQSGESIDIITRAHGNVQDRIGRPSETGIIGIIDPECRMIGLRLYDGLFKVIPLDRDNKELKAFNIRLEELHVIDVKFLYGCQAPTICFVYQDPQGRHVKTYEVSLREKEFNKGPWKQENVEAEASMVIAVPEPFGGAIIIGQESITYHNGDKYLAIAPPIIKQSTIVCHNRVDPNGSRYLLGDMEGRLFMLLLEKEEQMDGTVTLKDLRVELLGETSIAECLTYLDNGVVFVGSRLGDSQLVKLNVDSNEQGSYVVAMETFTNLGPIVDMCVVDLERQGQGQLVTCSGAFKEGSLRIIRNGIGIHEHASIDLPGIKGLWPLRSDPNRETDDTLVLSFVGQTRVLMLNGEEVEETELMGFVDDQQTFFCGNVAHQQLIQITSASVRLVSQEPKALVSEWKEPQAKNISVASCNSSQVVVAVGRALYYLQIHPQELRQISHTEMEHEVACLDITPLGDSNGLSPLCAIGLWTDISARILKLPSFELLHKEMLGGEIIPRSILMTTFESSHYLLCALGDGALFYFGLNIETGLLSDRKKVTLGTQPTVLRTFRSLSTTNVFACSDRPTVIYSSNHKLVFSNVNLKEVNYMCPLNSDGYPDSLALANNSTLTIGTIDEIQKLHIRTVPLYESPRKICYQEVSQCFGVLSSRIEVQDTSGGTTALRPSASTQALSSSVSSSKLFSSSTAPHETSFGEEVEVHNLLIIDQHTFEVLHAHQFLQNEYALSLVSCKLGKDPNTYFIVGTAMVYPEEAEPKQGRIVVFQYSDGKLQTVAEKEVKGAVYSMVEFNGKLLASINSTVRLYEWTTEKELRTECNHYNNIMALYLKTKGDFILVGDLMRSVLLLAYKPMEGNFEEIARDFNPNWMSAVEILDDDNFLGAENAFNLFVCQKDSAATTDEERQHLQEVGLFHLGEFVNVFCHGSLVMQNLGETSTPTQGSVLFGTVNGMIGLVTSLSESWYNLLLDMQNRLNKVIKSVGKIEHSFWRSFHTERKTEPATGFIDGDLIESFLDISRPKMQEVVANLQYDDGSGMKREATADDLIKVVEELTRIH
Sequence of ER (P03372 whole entry): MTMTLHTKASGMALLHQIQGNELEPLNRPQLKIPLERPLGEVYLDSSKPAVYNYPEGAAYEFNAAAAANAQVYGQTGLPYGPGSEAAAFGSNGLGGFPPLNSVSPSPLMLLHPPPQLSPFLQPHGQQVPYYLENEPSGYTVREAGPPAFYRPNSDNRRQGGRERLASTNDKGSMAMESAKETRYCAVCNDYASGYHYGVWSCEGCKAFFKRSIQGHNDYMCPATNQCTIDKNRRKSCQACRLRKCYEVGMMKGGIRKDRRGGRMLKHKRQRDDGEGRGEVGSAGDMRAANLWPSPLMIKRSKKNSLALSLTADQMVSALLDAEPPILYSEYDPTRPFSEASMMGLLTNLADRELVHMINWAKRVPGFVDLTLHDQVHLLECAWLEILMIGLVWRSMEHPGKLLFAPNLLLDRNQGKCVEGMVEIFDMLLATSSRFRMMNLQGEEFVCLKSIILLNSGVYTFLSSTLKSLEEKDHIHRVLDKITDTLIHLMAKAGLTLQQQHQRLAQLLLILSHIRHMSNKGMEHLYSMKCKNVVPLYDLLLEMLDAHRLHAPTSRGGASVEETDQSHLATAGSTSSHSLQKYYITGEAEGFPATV
Sequence of ER in MCF-7 cells (P03372 whole entry): as above

With `O=C1CC[C@H](N2Cc3cc4c(cc3C2=O)OC[C@@H]2CN(CC3CCC5(CC3)CN(c3ccc([C@@H]6c7ccc(O)cc7CC[C@@H]6c6ccccc6)cc3)C5)CCN42)C(=O)N1` (single isomer, unassigned) [Compound A63] as the molecule, how does the pIC50 (CRBN/DDB1) read?
The pIC50 was 5.30 to 6.30.

With `O=C1CC[C@H](N2Cc3cc4c(cc3C2=O)OC[C@@H]2CN(CC3CC5(CCN(c6ccc([C@@H]7c8ccc(O)cc8CC[C@@H]7c7ccccc7)cn6)CC5)C3)CCN42)C(=O)N1` (single isomer, unassigned) [Compound A121] as the molecule, how does the pIC50 (CRBN/DDB1) read?
Its pIC50 is 5.30 to 6.30.

And the Dmax (ER in MCF-7 cells)?
Its Dmax is greater than 75%.

And the DC50 (ER in MCF-7 cells)?
The DC50 was 1 to 10 nM.

With `COc1cc(N2CCC3(CC2)CC(CN2CCN4c5ccc6c(c5OC[C@H]4C2)CN([C@H]2CCC(=O)N(C)C2=O)C6=O)C3)ccc1[C@@H]1c2ccc(O)cc2CC[C@@H]1c1ccccc1` (single isomer, unassigned) [Compound A132] as the molecule, how does the pIC50 (CRBN/DDB1) read?
The pIC50 was 5.30 to 6.30.

What about the Dmax (ER in MCF-7 cells) of the same molecule?
The Dmax was 50 to 75%.

What about the DC50 (ER in MCF-7 cells) of the same molecule?
Its DC50 is 1 to 10 nM.

Which results are given for `O=C1CC[C@H](N2Cc3cc4c(cc3C2=O)OC[C@@H]2CN(CC3CC5(CCN(c6ccc([C@@H]7c8ccc(O)cc8CC[C@@H]7c7ccccc7)cc6F)CC5)C3)CCN42)C(=O)N1` (single isomer, unassigned) [Compound A150]?
pIC50 (CRBN/DDB1): 5.30 to 6.30; Dmax (ER in MCF-7 cells): 50 to 75%; DC50 (ER in MCF-7 cells): 10 to 100 nM

What does the source list for `O=C1CC[C@H](N2Cc3cc4c(cc3C2=O)OC[C@@H]2CN(CC3CCC5(CC3)CN(c3ccc([C@H]6c7ccc(O)cc7CC[C@H]6c6ccccc6)cc3F)C5)CCN42)C(=O)N1` (single isomer, unassigned) [Compound A151]?
pIC50 (CRBN/DDB1): 5.30 to 6.30; Dmax (ER in MCF-7 cells): 25 to 50%; DC50 (ER in MCF-7 cells): 10 to 100 nM

With `O=C1CC[C@H](N2Cc3c(ccc4c3OC[C@H]3CN(CC5CCC6(CC5)CN(c5ccc([C@@H]7c8ccc(O)cc8CC[C@@H]7c7ccccc7)cc5F)C6)CCN43)C2=O)C(=O)N1` (single isomer, unassigned) [Compound A152] as the molecule, how does the pIC50 (CRBN/DDB1) read?
Its pIC50 is 5.30 to 6.30.

And the Dmax (ER in MCF-7 cells)?
Its Dmax is 50 to 75%.

What about the DC50 (ER in MCF-7 cells) of the same molecule?
Its DC50 is 1 to 10 nM.

What does the source list for `O=C1CC[C@H](N2Cc3c(ccc4c3OC[C@H]3CN(CC5CCC6(CC5)CN(c5ncc([C@@H]7c8ccc(O)cc8CC[C@@H]7c7ccccc7)cn5)C6)CCN43)C2=O)C(=O)N1` (single isomer, unassigned) [Compound A156]?
pIC50 (CRBN/DDB1): 6.30 to 7.30; Dmax (ER in MCF-7 cells): > 75%; DC50 (ER in MCF-7 cells): < 1 nM

With `O=C1CC[C@H](N2Cc3cc4c(cc3C2=O)OC[C@@H]2CN(CC3CCC5(CC3)CN(c3ncc([C@H]6c7ccc(O)cc7CC[C@H]6c6ccccc6)cn3)C5)CCN42)C(=O)N1` (single isomer, unassigned) [Compound A157] as the molecule, how does the pIC50 (CRBN/DDB1) read?
The pIC50 was 5.30 to 6.30.

What about the Dmax (ER in MCF-7 cells) of the same molecule?
The Dmax was less than 25%.

And the DC50 (ER in MCF-7 cells)?
The DC50 was 10 to 100 nM.

For `O=C1CCC(N2Cc3cc4c(cc3C2=O)OC[C@@H]2CN(CC3CCC5(CCN(c6ccc([C@@H]7c8ccc(O)cc8CC[C@@H]7c7ccccc7)cc6)CC5)C3)CCN42)C(=O)N1` (stereo partly drawn) [Compound B363, 3-((4aS)-3-((8-(4-((1R,2S)-6-hydroxy-2-phenyl-1,2,3,4-tetrahydronaphthalen-1-yl)phenyl)-8-azaspiro[4.5]decan-2-yl)methyl)-8-oxo-1,2,3,4,4a,5,8,10-octahydro-9H-pyrazino[1′,2′:4,5][1,4]oxazino[2,3-f]isoindol-9-yl)piperidine-2,6-dione], which DC50 (ER) is on record?
Its DC50 is 10 to 100 nM.

What about the pIC50 ([1]; T47D cell line) of the same molecule?
Its pIC50 is less than 8.00.

For `O=C1CCC(N2Cc3c(ccc4c3OCC43CCN(CC4CCC5(CCN(c6ccc([C@@H]7c8ccc(O)cc8CC[C@@H]7c7ccccc7)cc6)CC5)C4)CC3)C2=O)C(=O)N1` (stereo partly drawn) [Compound B364, 3-(1′-((8-(4-((1R,2S)-6-hydroxy-2-phenyl-1,2,3,4-tetrahydronaphthalen-1-yl)phenyl)-8-azaspiro[4.5]decan-2-yl)methyl)-6-oxo-6,8-dihydro-2H,7H-spiro[furo[2,3-e]isoindole-3,4′-piperidin]-7-yl)piperidine-2,6-dione], which DC50 (ER) is on record?
Its DC50 is greater than 100 nM.

What about the pIC50 [1] of the same molecule?
The pIC50 was 8.00 to 9.00.

With `O=C1CC[C@H](NC(=O)c2ccc3c(n2)OC[C@H]2CN(CC4CCC5(CCN(c6ccc([C@@H]7c8ccc(O)cc8CC[C@@H]7c7ccccc7)cc6)CC5)C4)CCN32)C(=O)N1` (stereo partly drawn) [Compound B365, (4aR)-N-((S)-2,6-dioxopiperidin-3-yl)-3-((8-(4-((1R,2S)-6-hydroxy-2-phenyl-1,2,3,4-tetrahydronaphthalen-1-yl)phenyl)-8-azaspiro[4.5]decan-2-yl)methyl)-1,2,3,4,4a,5-hexahydropyrazino[1,2-d]pyrido[2,3-b][1,4]oxazine-8-carboxamide] as the molecule, how does the DC50 (ER) read?
Its DC50 is 10 to 100 nM.

What about the pIC50 ([1]; T47D cell line) of the same molecule?
The pIC50 was less than 8.00.

With `O=C1CC[C@H](N2Cc3c(ccc4c3OCC43CCN(CC4CCC5(CCN(c6ccc([C@@H]7c8ccc(O)cc8CC[C@@H]7c7ccccc7)cc6)CC5)OC4)CC3)C2=O)C(=O)N1` (stereo partly drawn) [Compound B366, (3S)-3-(1′-((9-(4-((1R,2S)-6-hydroxy-2-phenyl-1,2,3,4-tetrahydronaphthalen-1-yl)phenyl)-1-oxa-9-azaspiro[5.5]undecan-3-yl)methyl)-6-oxo-6,8-dihydro-2H,7H-spiro[furo[2,3-e]isoindole-3,4′-piperidin]-7-yl)piperidine-2,6-dione] as the molecule, how does the DC50 (ER) read?
Its DC50 is less than 10 nM.

What about the pIC50 [1] of the same molecule?
The pIC50 was greater than 9.00.

What does the source list for `O=C1CCC(N2Cc3cc4c(cc3C2=O)OC[C@@H]2CN(CC(=O)N3CCC5(CC3)CCN(c3ccc([C@@H]6c7ccc8[nH]ncc8c7CC[C@@H]6c6ccccc6)cc3)CC5)CCN42)C(=O)N1` (stereo partly drawn) [Compound B389, 3-((S)-8-oxo-3-(2-oxo-2-(9-(4-((6R,7S)-7-phenyl-6,7,8,9-tetrahydro-3H-benzo[e]indazol-6-yl)phenyl)-3,9-diazaspiro[5.5]undecan-3-yl)ethyl)-1,2,3,4,4a,5,8,10-octahydro-9H-pyrazino[1′,2′:4,5][1,4]oxazino[2,3-f]isoindol-9-yl)piperidine-2,6-dione]?
DC50 (ER): > 100 nM; pIC50 ([1]; T47D cell line): < 8.00

With `O=C1CCC(N2Cc3cc4c(cc3C2=O)OC[C@@H]2CN(CC(=O)N3CCC5(CC3)CCN(c3ccc([C@H]6c7ccc8[nH]ncc8c7CC[C@H]6c6ccccc6)cc3)CC5)CCN42)C(=O)N1` (stereo partly drawn) [Compound B390, 3-((S)-8-oxo-3-(2-oxo-2-(9-(4-((6S,7R)-7-phenyl-6,7,8,9-tetrahydro-3H-benzo[e]indazol-6-yl)phenyl)-3,9-diazaspiro[5.5]undecan-3-yl)ethyl)-1,2,3,4,4a,5,8,10-octahydro-9H-pyrazino[1′,2′:4,5][1,4]oxazino[2,3-f]isoindol-9-yl)piperidine-2,6-dione] as the molecule, how does the DC50 (ER) read?
The DC50 was 10 to 100 nM.

And the pIC50 ([1]; T47D cell line)?
The pIC50 was less than 8.00.

Which results are given for `O=C1CC[C@H](N2Cc3cc4c(cc3C2=O)OC[C@H](CN2CCC3(CC2)CCN(c2ccc([C@@H]5c6ccc(O)cc6CC[C@@H]5c5ccccc5)cc2)CC3)O4)C(=O)N1` [Compound B391, 3-((S)-2-((9-(4-((1R,2S)-6-hydroxy-2-phenyl-1,2,3,4-tetrahydronaphthalen-1-yl)phenyl)-3,9-diazaspiro[5.5]undecan-3-yl)methyl)-6-oxo-2,3,6,8-tetrahydro-7H-[1,4]dioxino[2,3-f]isoindol-7-yl)piperidine-2,6-dione]?
DC50 (ER): > 100 nM; pIC50 ([1]; T47D cell line): 8.00 to 9.00

Which DC50 (ER) does the source give for `O=C1CC[C@H](N2Cc3cc4c(cc3C2=O)OC[C@@H]2CN(C[C@H]3COC5(CCN(c6ccc([C@@H]7c8ccc(O)cc8CC[C@@H]7c7ccccc7)cc6)CC5)C3)CCN42)C(=O)N1` [Compound B398, (S)-3-((S)-3-(((S)-8-(4-((1R,2S)-6-hydroxy-2-phenyl-1,2,3,4-tetrahydronaphthalen-1-yl)phenyl)-1-oxa-8-azaspiro[4.5]decan-3-yl)methyl)-8-oxo-1,2,3,4,4a,5,8,10-octahydro-9H-pyrazino[1′,2′:4,5][1,4]oxazino[2,3-f]isoindol-9-yl)piperidine-2,6-dione] here?
The DC50 was less than 10 nM.

And the pIC50 ([1]; T47D cell line)?
Its pIC50 is greater than 9.00.

Which results are given for `O=C1CC[C@H](N2Cc3cc4c(cc3C2=O)OC[C@@H]2CN(C[C@@H]3COC5(CCN(c6ccc([C@@H]7c8ccc(O)cc8CC[C@@H]7c7ccccc7)cc6)CC5)C3)CCN42)C(=O)N1` [Compound B399, (S)-3-((S)-3-(((R)-8-(4-((1R,2S)-6-hydroxy-2-phenyl-1,2,3,4-tetrahydronaphthalen-1-yl)phenyl)-1-oxa-8-azaspiro[4.5]decan-3-yl)methyl)-8-oxo-1,2,3,4,4a,5,8,10-octahydro-9H-pyrazino[1′,2′:4,5][1,4]oxazino[2,3-f]isoindol-9-yl)piperidine-2,6-dione]?
DC50 (ER): < 10 nM; pIC50 ([1]; T47D cell line): > 9.00

Which results are given for `O=C1CC[C@H](N2Cc3c(ccc4c3OCC43CCN(C[C@@H]4CCC5(CCN(c6ccc([C@@H]7c8ccc(O)cc8CC[C@@H]7c7ccccc7)cc6)CC5)OC4)CC3)C2=O)C(=O)N1` [Compound B400, (S)-3-(1′-(((S)-9-(4-((1R,2S)-6-hydroxy-2-phenyl-1,2,3,4-tetrahydronaphthalen-1-yl)phenyl)-1-oxa-9-azaspiro[5.5]undecan-3-yl)methyl)-6-oxo-6,8-dihydro-2H,7H-spiro[furo[2,3-e]isoindole-3,4′-piperidin]-7-yl)piperidine-2,6-dione]?
DC50 (ER): < 10 nM; pIC50 [1]: > 9.00

Which DC50 (ER) does the source give for `O=C1CC[C@H](N2Cc3c(ccc4c3OCC43CCN(C[C@H]4CCC5(CCN(c6ccc([C@@H]7c8ccc(O)cc8CC[C@@H]7c7ccccc7)cc6)CC5)OC4)CC3)C2=O)C(=O)N1` [Compound B401, (S)-3-(1′-(((R)-9-(4-((1R,2S)-6-hydroxy-2-phenyl-1,2,3,4-tetrahydronaphthalen-1-yl)phenyl)-1-oxa-9-azaspiro[5.5]undecan-3-yl)methyl)-6-oxo-6,8-dihydro-2H,7H-spiro[furo[2,3-e]isoindole-3,4′-piperidin]-7-yl)piperidine-2,6-dione] here?
Its DC50 is less than 10 nM.

And the pIC50 [1]?
The pIC50 was greater than 9.00.
